Experimental findings from paper PMC8698456, “Agrobacterium fabrum atu0526-Encoding Protein Is the Only Chemoreceptor That Regulates Chemoattraction toward the Broad Antibacterial Agent Formic Acid” (Biology, 2021) are described below.

The target of test [1] is T1, Atu0526 (Agrobacterium fabrum, UniProt Q7D199, R115A).
T1 construct: gene mclA; periplasmic domain (Atu0526 LBD R115A; LBD from 36th residue to 197th residue)
The test is described as follows: isothermal titration calorimetry (no significant Tm shift in thermo shift assay). The class given is binding.

The target in test [2] is T2, Atu0526 (Agrobacterium fabrum, UniProt Q7D199).
T2 construct: gene mclA; periplasmic domain (LBD, from 36th residue to 197th residue), His-tagged, pET30a
T2 sequence (Q7D199 entry or part of it): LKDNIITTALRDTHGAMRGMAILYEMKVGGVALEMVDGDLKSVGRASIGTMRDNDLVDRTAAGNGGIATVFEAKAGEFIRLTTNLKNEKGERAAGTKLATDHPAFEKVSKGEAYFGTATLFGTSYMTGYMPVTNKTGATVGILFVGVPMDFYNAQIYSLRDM
The test is described as follows: isothermal titration calorimetry; thermo shift assay (Tm […] to […] °C). The class given is binding.

Each structure is given as a SMILES string.

T1 sequence (Q7D199 entry or part of it R115A): as the sequence (Q7D199 entry or part of it) above

The Kd is the free concentration of one partner at which half of the binding sites on the other are occupied at equilibrium, for simple one-to-one binding. As for `O=CO` [formic acid], the results for the Kd in test [1] and in test [2] were 22.9 ± 5.36 µM and 172 ± 53.6 µM, respectively.
